Reference: ChEMBL document CHEMBL6083195, “Cornulacin: a new isoflavone from Cornulaca monacantha and its isolation, structure elucidation and cytotoxicity through EGFR-mediated apoptosis” (RSC Med Chem, 2024)

Legend:
[1] = system: PANC-1; test: Cytotoxicity against human PANC-1 cells by MTT assay; type: functional, cell-based
[2] = system: A2780; test: Cytotoxicity against human A2780 cells by MTT assay; type: functional, cell-based
[3] = system: KB; test: Cytotoxicity against human KB cells; type: functional, cell-based
[4] = system: A2780; test: Induction of apoptosis in human A2780 cells assessed as fold increase in caspase-3 mRNA level at IC50 incubated for 48 hrs by RT-PCR analysis relative to control; type: functional
[5] = system: A2780; test: Induction of apoptosis in human A2780 cells assessed as fold increase in Bax mRNA level at IC50 incubated for 48 hrs by RT-PCR analysis relative to control; type: functional
[6] = system: A2780; test: Induction of apoptosis in human A2780 cells assessed as late apoptotic cells at IC50 incubated for 48 hrs by Annexin V-FITC/PI staining based flow cytometry (reference value: 0.23 %); type: functional
[7] = system: A2780; test: Induction of apoptosis in human A2780 cells assessed as early apoptotic cells at IC50 incubated for 48 hrs by Annexin V-FITC/PI staining based flow cytometry (reference value: 0.72 %); type: functional
[8] = system: A2780; test: Induction of apoptosis in human A2780 cells assessed as fold increase in P53 mRNA level at IC50 incubated for 48 hrs by RT-PCR analysis relative to control; type: functional
[9] = system: A2780; test: Induction of apoptosis in human A2780 cells assessed as fold increase in caspase-8 mRNA level at IC50 incubated for 48 hrs by RT-PCR analysis relative to control; type: functional
[10] = system: A2780; test: Induction of apoptosis in human A2780 cells assessed as fold decrease in Bcl-2 mRNA level at IC50 incubated for 48 hrs by RT-PCR analysis relative to control; type: functional
[11] = system: A2780; test: Induction of apoptosis in human A2780 cells assessed as total apoptotic cell death at IC50 incubated for 48 hrs by Annexin V-FITC/PI staining based flow cytometry (reference value: 0.955 %); type: functional
[12] = system: A2780; test: Induction of cell cycle arrest in human A2780 cells assessed as accumulation at G1 phase at IC50 incubated for 48 hrs by flow cytometry (reference value: 41.8 %); type: functional
[13] = system: A2780; test: Induction of cell cycle arrest in human A2780 cells assessed as accumulation at G2/M phase at IC50 incubated for 48 hrs by flow cytometry (reference value: 27.5 %); type: functional
[14] = system: A2780; test: Induction of apoptosis in human A2780 cells assessed as necrotic cells at IC50 incubated for 48 hrs by Annexin V-FITC/PI staining based flow cytometry (reference value: 1.52 %); type: functional
[15] = system: WISH; test: Cytotoxicity against human WISH cells by MTT assay; type: functional, cell-based
[16] = system: A2780; test: Induction of cell cycle arrest in human A2780 cells assessed as accumulation at S phase at IC50 incubated for 48 hrs by flow cytometry (reference value: 30.6 %); type: functional
[17] = system: A2780; test: Induction of apoptosis in human A2780 cells assessed as fold increase in caspase-9 mRNA level at IC50 incubated for 48 hrs by RT-PCR analysis relative to control; type: functional

## O=C(/C=C/c1ccc(O)c(O)c1)NCCc1ccc(O)cc1
[1]
  IC50: 7.2 µM
[2]
  IC50: 11.2 µM

## COc1cc(/C=C/C(=O)NCCc2ccc(O)c(OC)c2)ccc1O
[1]
  IC50: 7 µM
[2]
  IC50: 2.9 µM

## COc1cc(OC)c(-c2coc3c4c(c(OC)cc3c2=O)OC(C)(C)C=C4)cc1OC
[3]
  IC50: 2 µM

## COc1cc(/C=C(\Oc2ccc(/C=C/C(=O)NCCc3ccc(O)cc3)cc2OC)C(=O)NCCc2ccc(O)cc2)ccc1O
[1]
  IC50: 19.3 µM
[2]
  IC50: 25.1 µM

## COCc1c(O)cc2occ(-c3ccccc3O)c(=O)c2c1OC
[4]
  fold change (FC): 8.1
[5]
  fold change (FC): 5.4
[6]
  Activity: 14.48%
[7]
  Activity: 29.17%
[8]
  fold change (FC): 6.7
[9]
  fold change (FC): 6.09
[1]
  IC50: 6.4 µM
[10]
  fold change (FC): 0.3
[11]
  Activity: 43.65%
[12]
  Activity: 46.2%
[13]
  Activity: 10.48%
[2]
  IC50: 2.1 µM
[14]
  Activity: 7.54%
[15]
  IC50: ≥ 100 µM
[16]
  Activity: 43.3%
[17]
  fold change (FC): 8.08

## COc1cc([C@H]2c3cc(O)c(OC)cc3/C(=C\C(=O)NCCc3ccc(O)cc3)[C@H]2C(=O)NCCc2ccc(O)cc2)ccc1O
[1]
  IC50: 24.1 µM
[2]
  IC50: 31.2 µM

## C#Cc1cccc(Nc2ncnc3cc(OCCOC)c(OCCOC)cc23)c1 [ERLOTINIB]
[1]
  IC50: 2.17 µM
[2]
  IC50: 1.13 µM

## COc1cc(/C=C/C(=O)NCCc2ccc(O)cc2)ccc1O [N-TRANS-FERULOYL TYRAMINE]
[1]
  IC50: 3.4 µM
[2]
  IC50: 9.1 µM
